Data as given in patent US11351176B2, “Combination therapy” (MEI Pharma, Inc., priority 2017, dated 2022).

Tests used:
[1] = test system: relapsed B-cell Non-Hodgkin's Lymphoma (NHL), including Chronic Lymphocytic Leukemia (CLL); assay: Phase 1b study of Compound A35 and rituximab in patients with relapsed B-cell malignancies; type: in vivo, human
Method: Study of a Combination of a PI3K Inhibitor and a CD20 Inhibitor in Patients with Relapsed B-Cell Non-Hodgkin's Lymphoma (NHL), Including Chronic Lymphocytic Leukemia (CLL)
The purpose of this study is to evaluate the safety and effectiveness of Compound A35 (single dose: 60 mg/day) and rituximab, in patients with relapsed B-cell malignancies.
• Study Type: Interventional • Study Design: Intervention Model: Single Group Assignment • Masking: No masking • Primary Purpose: Treatment
Primary Outcome Measures: • Determine Acceptable Adverse Events That Are Related to Treatment [Time Frame: 6 months of therapy]. To determine the incidence of adverse events, any potential abnormal laboratory results and any dose-limiting toxicities Secondary Outcome Measures: • Efficacy of Compound A35 with Rituximab as assessed by Overall Response (OR) [Time Frame: 2 years]. The efficacy of Compound A35 with Rituximab will be determined by the overall response of subjects calculated as the percent of subjects achieving a complete remission (CR) or a complete remission with incomplete marrow recovery (CRi) or a partial response (PR) according to the International Workshop on Chronic Lymphocytic Leukemia (IWCLL). • Evaluate the PK of Compound A35 with Rituximab (AUC) [Time Frame: 2 years] Determined by the Area Under the Concentration time curve (AUC) • Evaluate the PK of Compound A35 with Rituximab (Cmax) [Time Frame: 2 years] Determined by Peak Plasma Concentration (Cmax)
Eligibility • Ages Eligible for Study: 18 Years and older (Adult, Senior) • Sexes Eligible for Study: All • Accepts Healthy Volunteers: No Criteria Inclusion Criteria: • Diagnosis of relapsed/refractory CLL SLL or FL, MZL, DLBCL and high-grade B-cell lymphoma.
Dosing of Compound A35 is done on a continuous dosing schedule (CS) or an intermittent dosing schedule (IS). On an IS, patients take 60 mg administered once a day on 7 consecutive days followed by 21 days without therapy, with cycles repeated every 28 days. On a CS, patients take 60 mg/day for the entirety of a 28 day cycle. All patients are started on a CS dosing regimen. Patients who complete two cycles of CS are switched to the IS.
In all cases, the dosing of rituximab is 375 mg/m2, administered for a total of 8 doses in 6 months.
15 patients were treated with a regimen consisting of rituximab 375 mg/m^2×8 doses over 6 months and Compound A35 at 60 mg on the CS for 2 cycles then switching to the IS.

[2] = test system: relapsed chronic lymphocytic leukemia (CLL); settings: combination of idelalisib and a CD20 inhibitor (e.g., rituximab or ofatumumab); cited from earlier work

| SMILES | response (patients with a reported response) ([1]; in combination with rituximab 375 mg/m2 x 8 doses in 6 months, Compound A35 60 mg/day continuous schedule (CS), indolent NHL (9 FL, 1 MZL), 7 of 10 patients) [%] | disease progression on the IS among patients with a disease response after 2 cycles ([1]; in combination with rituximab, 8 responders, median follow-up 5.2 months from enrollment) | patients with disease progression, discontinued from the study ([1]; in combination with rituximab, CS of Compound A35 60 mg/day, indolent NHL, 10 patients) [patient] | rate of response (in words) ([1]; in combination with rituximab, CS, patients) | patients discontinued due to disease progression ([1]; in combination with rituximab, Compound A35 60 mg/day, DLBCL, 4 patients) [patients] | response (patients with a reported response) ([1]; in combination with rituximab, Compound A35 60 mg/day, DLBCL, 1 of 4 patients) [%] | patients who developed delayed immune-related toxicity ([1]; in combination with rituximab, after 2 cycles CS switched to intermittent schedule (IS, 60 mg 7 days on/21 days off), 1/10 patients, median follow-up 3.4 months on the IS) [%] | effect of the IS on delayed onset immune toxicities and efficacy (in words) ([1]; in combination with rituximab, intermittent schedule after 2 CS cycles, preliminary data) | rate of response (in words) ([1]; in combination with rituximab, patients with relapsed indolent NHL and CLL/SLL) | durability of responses (in words) ([1]; in combination with rituximab, relapsed indolent NHL and CLL/SLL) | risk of death due to infection and/or severe adverse effects (in words) [2] |
| --- | --- | --- | --- | --- | --- | --- | --- | --- | --- | --- | --- |
| CN1CCC(c2ccccc2CC(C)(C)Nc2nc(N3CCOCC3)nc(-n3c(C(F)F)nc4ccccc43)n2)CC1 [Compound A35] | 70 | none | 1 | very high rate of response | 3 | 25 | 10 | appears to reduce the incidence of delayed onset immune toxicities without erosion in treatment efficacy | very high rate of response | appear durable |  |
| CC[C@H](Nc1ncnc2[nH]cnc12)c1nc2cccc(F)c2c(=O)n1-c1ccccc1 [idelalisib] |  |  |  |  |  |  |  |  |  |  | alarming increase in the risk of death due to infection and/or severe adverse effects |
